System: DMS-114 complex spheroids with HUVEC/MSC, growth % test/control
Assay: Anticancer human tumor DMS-114 cell line growth inhibition [AhR];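 note: spheroids exposed to agents for 7 days before readout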;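 for viability, T/C: 100% = DMSO vehicle control wells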
Conditions: for IC50: curve of first compound; for viability, T/C: stronger effect = lower value
Summary of the method: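 Agents were dosed in half-log steps down from roughly clinical Cmax, or from 10 microM where Cmax was unknown, alone and with AhR antagonists. Read-out: percent test/control growth of tumor spheroids containing HUVEC and MSC stromal cells.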

[1] = second compound 0.1 µM, first compound 0.0316 µM
[2] = second compound 0.1 µM, first compound 0.1 µM
[3] = second compound 0.1 µM, first compound 0.316 µM
[4] = second compound 0.1 µM, first compound 1 µM
[5] = second compound 0.1 µM, first compound 3.16 µM
[6] = second compound 0.1 µM, first compound 10 µM
[7] = second compound 0.316 µM, first compound 0.0316 µM
[8] = second compound 0.316 µM, first compound 0.1 µM
[9] = second compound 0.316 µM, first compound 0.316 µM
[10] = second compound 0.316 µM, first compound 1 µM
[11] = second compound 0.316 µM, first compound 3.16 µM
[12] = second compound 0.316 µM, first compound 10 µM
[13] = second compound 1 µM, first compound 0.0316 µM
[14] = second compound 1 µM, first compound 0.1 µM
[15] = second compound 1 µM, first compound 0.316 µM
[16] = second compound 1 µM, first compound 1 µM
[17] = second compound 1 µM, first compound 3.16 µM
[18] = second compound 1 µM, first compound 10 µM
[19] = second compound 3.16 µM, first compound 0.0316 µM
[20] = second compound 3.16 µM, first compound 0.1 µM
[21] = second compound 3.16 µM, first compound 0.316 µM
[22] = second compound 3.16 µM, first compound 1 µM
[23] = second compound 3.16 µM, first compound 3.16 µM
[24] = second compound 3.16 µM, first compound 10 µM
[25] = second compound 10 µM, first compound 0.0316 µM
[26] = second compound 10 µM, first compound 0.1 µM
[27] = second compound 10 µM, first compound 0.316 µM
[28] = second compound 10 µM, first compound 1 µM
[29] = second compound 10 µM, first compound 3.16 µM
[30] = second compound 10 µM, first compound 10 µM

## CC1(C)CCC(CN2CCN(c3ccc(C(=O)NS(=O)(=O)c4ccc(NCC5CCOCC5)c([N+](=O)[O-])c4)c(Oc4cnc5[nH]ccc5c4)c3)CC2)=C(c2ccc(Cl)cc2)C1 + CC(CO)NC(=O)c1cc(-c2ccc(Cl)cc2)nn(-c2cnn(C)c2)c1=O
Second compound 0.1 µM
  IC50: > 10000 nM
Second compound 0.316 µM
  IC50: > 10000 nM
Second compound 1 µM
  IC50: > 10000 nM
Second compound 3.16 µM
  IC50: > 10000 nM
Second compound 10 µM
  IC50: > 10000 nM
[1]
  viability, T/C: 99.3%
[2]
  viability, T/C: 101%
[3]
  viability, T/C: 107%
[4]
  viability, T/C: 93.1%
[5]
  viability, T/C: 104%
[6]
  viability, T/C: 67.2%
[7]
  viability, T/C: 95.7%
[8]
  viability, T/C: 114%
[9]
  viability, T/C: 104%
[10]
  viability, T/C: 87.6%
[11]
  viability, T/C: 92.3%
[12]
  viability, T/C: 73.4%
[13]
  viability, T/C: 93.1%
[14]
  viability, T/C: 92.2%
[15]
  viability, T/C: 94%
[16]
  viability, T/C: 119%
[17]
  viability, T/C: 102%
[18]
  viability, T/C: 68.2%
[19]
  viability, T/C: 101%
[20]
  viability, T/C: 101%
[21]
  viability, T/C: 91.3%
[22]
  viability, T/C: 95.8%
[23]
  viability, T/C: 93%
[24]
  viability, T/C: 71.3%
[25]
  viability, T/C: 104%
[26]
  viability, T/C: 93%
[27]
  viability, T/C: 95.6%
[28]
  viability, T/C: 106%
[29]
  viability, T/C: 104%
[30]
  viability, T/C: 64.7%

## CCN(c1cc(-c2ccc(CN3CCOCC3)cc2)cc(C(=O)NCc2c(C)cc(C)[nH]c2=O)c1C)C1CCOCC1 + CC(CO)NC(=O)c1cc(-c2ccc(Cl)cc2)nn(-c2cnn(C)c2)c1=O
Second compound 0.1 µM
  IC50: > 3000 nM
Second compound 0.316 µM
  IC50: > 3000 nM
Second compound 1 µM
  IC50: > 3000 nM
Second compound 3.16 µM
  IC50: > 3000 nM
Second compound 10 µM
  IC50: > 3000 nM
Second compound 0.1 µM, first compound 0.00949 µM
  viability, T/C: 95.4%
Second compound 0.1 µM, first compound 0.03 µM
  viability, T/C: 86.3%
Second compound 0.1 µM, first compound 0.0949 µM
  viability, T/C: 103%
Second compound 0.1 µM, first compound 0.3 µM
  viability, T/C: 100%
Second compound 0.1 µM, first compound 0.949 µM
  viability, T/C: 98%
Second compound 0.1 µM, first compound 3 µM
  viability, T/C: 92.5%
Second compound 0.316 µM, first compound 0.00949 µM
  viability, T/C: 110%
Second compound 0.316 µM, first compound 0.03 µM
  viability, T/C: 107%
Second compound 0.316 µM, first compound 0.0949 µM
  viability, T/C: 104%
Second compound 0.316 µM, first compound 0.3 µM
  viability, T/C: 102%
Second compound 0.316 µM, first compound 0.949 µM
  viability, T/C: 92.8%
Second compound 0.316 µM, first compound 3 µM
  viability, T/C: 93%
Second compound 1 µM, first compound 0.00949 µM
  viability, T/C: 98.3%
Second compound 1 µM, first compound 0.03 µM
  viability, T/C: 106%
Second compound 1 µM, first compound 0.0949 µM
  viability, T/C: 109%
Second compound 1 µM, first compound 0.3 µM
  viability, T/C: 104%
Second compound 1 µM, first compound 0.949 µM
  viability, T/C: 95.7%
Second compound 1 µM, first compound 3 µM
  viability, T/C: 101%
Second compound 3.16 µM, first compound 0.00949 µM
  viability, T/C: 118%
Second compound 3.16 µM, first compound 0.03 µM
  viability, T/C: 96.5%
Second compound 3.16 µM, first compound 0.0949 µM
  viability, T/C: 111%
Second compound 3.16 µM, first compound 0.3 µM
  viability, T/C: 104%
Second compound 3.16 µM, first compound 0.949 µM
  viability, T/C: 93.3%
Second compound 3.16 µM, first compound 3 µM
  viability, T/C: 91%
Second compound 10 µM, first compound 0.00949 µM
  viability, T/C: 117%
Second compound 10 µM, first compound 0.03 µM
  viability, T/C: 98.1%
Second compound 10 µM, first compound 0.0949 µM
  viability, T/C: 117%
Second compound 10 µM, first compound 0.3 µM
  viability, T/C: 100%
Second compound 10 µM, first compound 0.949 µM
  viability, T/C: 92.4%
Second compound 10 µM, first compound 3 µM
  viability, T/C: 86.5%

## COc1cc(Nc2ncc3c(n2)-c2ccc(Cl)cc2C(c2c(F)cccc2OC)=NC3)ccc1C(=O)O + CC(CO)NC(=O)c1cc(-c2ccc(Cl)cc2)nn(-c2cnn(C)c2)c1=O
Second compound 0.1 µM
  IC50: < 31.6 nM
Second compound 0.316 µM
  IC50: < 31.6 nM
Second compound 1 µM
  IC50: < 31.6 nM
Second compound 3.16 µM
  IC50: < 31.6 nM
Second compound 10 µM
  IC50: < 31.6 nM
[1]
  viability, T/C: 24.8%
[2]
  viability, T/C: 25.1%
[3]
  viability, T/C: 63.5%
[4]
  viability, T/C: 53.1%
[5]
  viability, T/C: 69.2%
[6]
  viability, T/C: 54.8%
[7]
  viability, T/C: 28.4%
[8]
  viability, T/C: 25.6%
[9]
  viability, T/C: 58%
[10]
  viability, T/C: 72%
[11]
  viability, T/C: 63.7%
[12]
  viability, T/C: 65.5%
[13]
  viability, T/C: 25.8%
[14]
  viability, T/C: 23.3%
[15]
  viability, T/C: 63.6%
[16]
  viability, T/C: 58.3%
[17]
  viability, T/C: 61.4%
[18]
  viability, T/C: 59.8%
[19]
  viability, T/C: 26.2%
[20]
  viability, T/C: 21.2%
[21]
  viability, T/C: 65.6%
[22]
  viability, T/C: 62.3%
[23]
  viability, T/C: 73.6%
[24]
  viability, T/C: 64.6%
[25]
  viability, T/C: 25.6%
[26]
  viability, T/C: 24.2%
[27]
  viability, T/C: 50.6%
[28]
  viability, T/C: 61.5%
[29]
  viability, T/C: 58.9%
[30]
  viability, T/C: 66.9%

## Cn1ncnc1C1c2n[nH]c(=O)c3cc(F)cc(c23)NC1c1ccc(F)cc1 (stereo not given) + CC(CO)NC(=O)c1cc(-c2ccc(Cl)cc2)nn(-c2cnn(C)c2)c1=O
Second compound 0.1 µM
  IC50: > 100 nM
Second compound 0.316 µM
  IC50: > 100 nM
Second compound 1 µM
  IC50: > 100 nM
Second compound 3.16 µM
  IC50: > 100 nM
Second compound 10 µM
  IC50: > 100 nM
Second compound 0.1 µM, first compound 0.000316 µM
  viability, T/C: 103%
Second compound 0.1 µM, first compound 0.001 µM
  viability, T/C: 95%
Second compound 0.1 µM, first compound 0.00316 µM
  viability, T/C: 101%
Second compound 0.1 µM, first compound 0.01 µM
  viability, T/C: 102%
[1]
  viability, T/C: 97.2%
[2]
  viability, T/C: 82%
Second compound 0.316 µM, first compound 0.000316 µM
  viability, T/C: 105%
Second compound 0.316 µM, first compound 0.001 µM
  viability, T/C: 95.5%
Second compound 0.316 µM, first compound 0.00316 µM
  viability, T/C: 103%
Second compound 0.316 µM, first compound 0.01 µM
  viability, T/C: 84.7%
[7]
  viability, T/C: 82%
[8]
  viability, T/C: 84.1%
Second compound 1 µM, first compound 0.000316 µM
  viability, T/C: 103%
Second compound 1 µM, first compound 0.001 µM
  viability, T/C: 116%
Second compound 1 µM, first compound 0.00316 µM
  viability, T/C: 109%
Second compound 1 µM, first compound 0.01 µM
  viability, T/C: 92.1%
[13]
  viability, T/C: 84%
[14]
  viability, T/C: 101%
Second compound 3.16 µM, first compound 0.000316 µM
  viability, T/C: 107%
Second compound 3.16 µM, first compound 0.001 µM
  viability, T/C: 105%
Second compound 3.16 µM, first compound 0.00316 µM
  viability, T/C: 109%
Second compound 3.16 µM, first compound 0.01 µM
  viability, T/C: 96.4%
[19]
  viability, T/C: 94.8%
[20]
  viability, T/C: 85.7%
Second compound 10 µM, first compound 0.000316 µM
  viability, T/C: 94.3%
Second compound 10 µM, first compound 0.001 µM
  viability, T/C: 106%
Second compound 10 µM, first compound 0.00316 µM
  viability, T/C: 104%
Second compound 10 µM, first compound 0.01 µM
  viability, T/C: 98.8%
[25]
  viability, T/C: 78.1%
[26]
  viability, T/C: 72.2%

## NS(=O)(=O)OCC1CC(n2ccc3c(NC4CCc5ccccc54)ncnc32)CC1O (stereo not given) + CC(CO)NC(=O)c1cc(-c2ccc(Cl)cc2)nn(-c2cnn(C)c2)c1=O
Second compound 0.1 µM
  IC50: < 31.6 nM
Second compound 0.316 µM
  IC50: 38.1 nM
Second compound 1 µM
  IC50: < 31.6 nM
Second compound 3.16 µM
  IC50: 33.3 nM
Second compound 10 µM
  IC50: < 31.6 nM
[1]
  viability, T/C: 39.8%
[2]
  viability, T/C: 35.6%
[3]
  viability, T/C: 16%
[4]
  viability, T/C: 11%
[5]
  viability, T/C: 7.57%
[6]
  viability, T/C: 6.46%
[7]
  viability, T/C: 53.4%
[8]
  viability, T/C: 32.2%
[9]
  viability, T/C: 17.7%
[10]
  viability, T/C: 9.64%
[11]
  viability, T/C: 8.09%
[12]
  viability, T/C: 6.7%
[13]
  viability, T/C: 47.9%
[14]
  viability, T/C: 35.5%
[15]
  viability, T/C: 16.3%
[16]
  viability, T/C: 12.2%
[17]
  viability, T/C: 7.56%
[18]
  viability, T/C: 7.46%
[19]
  viability, T/C: 50.6%
[20]
  viability, T/C: 34.8%
[21]
  viability, T/C: 17.8%
[22]
  viability, T/C: 11.7%
[23]
  viability, T/C: 8.81%
[24]
  viability, T/C: 6.82%
[25]
  viability, T/C: 49.4%
[26]
  viability, T/C: 40%
[27]
  viability, T/C: 18.3%
[28]
  viability, T/C: 10.8%
[29]
  viability, T/C: 8.39%
[30]
  viability, T/C: 8.61%
